Publication PMC11521309, “A novel 4-aminoquinoline chemotype with multistage antimalarial activity and lack of cross-resistance with PfCRT and PfMDR1 mutants” (PLOS Pathogens, 2024)
Values joined by “and” are separate entries in the source; they are usually repeats but may differ in a detail not shown here. Equal values may be shown once.

What was measured:
[1] = test system: P. falciparum Dd2^3D7; parameters: key: S: sensitive; R: resistant; details: ref [19],[20],[51]; cited from earlier work
[2] = test system: P. falciparum NF10^YF; parameters: method as in ref 1 Veiga et al. 2016; details: means ± SEM, N 6; ref 1 Veiga et al. 2016; read-out: IC50 NF10YF; cited from earlier work
[3] = test system: P. falciparum 7G8^7G8; parameters: key to Phenotype, 7G8^7G8: S: sensitive; R: resistant; details: cited from earlier work
[4] = test system: P. falciparum Dd2^F145I; parameters: key to Phenotype, Dd2^F145I: S: sensitive; R: resistant; details: cited from earlier work
[5] = test system: P. falciparum Dd2^M343L; parameters: key to Phenotype, Dd2^M343L: S: sensitive; R: resistant; details: cited from earlier work
[6] = test system: P. falciparum Dd2^T93S; parameters: key to Phenotype, Dd2^T93S: S: sensitive; R: resistant; details: cited from earlier work
[7] = test system: P. falciparum 7G8^C350R; parameters: key to Phenotype, 7G8^C350R: S: sensitive; R: resistant; details: cited from earlier work
[8] = test system: P. falciparum Dd2^Dd2; parameters: key to Phenotype, Dd2^Dd2: S: sensitive; R: resistant; details: cited from earlier work
[9] = test system: P. falciparum Dd2^G353V; parameters: key to Phenotype, Dd2^G353V: S: sensitive; R: resistant; details: cited from earlier work
[10] = test system: P. falciparum 7G8^F145I; parameters: key to Phenotype, 7G8^F145I: S: sensitive; R: resistant; details: cited from earlier work
[11] = test system: P. falciparum Dd2^H97Y; parameters: key: S: sensitive; R: resistant; details: ref [19],[20],[51]; cited from earlier work
[12] = test system: P. falciparum Dd2^I218F; parameters: key to Phenotype, Dd2^I218F: S: sensitive; R: resistant; details: cited from earlier work
[13] = test system: P. falciparum NF10^NF; parameters: method as in ref 1 Veiga et al. 2016; details: means ± SEM, N 6; ref 1 Veiga et al. 2016; read-out: IC50 NF10NF; cited from earlier work
[14] = test system: pool of barcoded P. falciparum lines (Dd2 and 3D7 backgrounds); test: Resistome growth assay, pool of 51 barcoded lines; format: cell-based, Plasmodium falciparum; details: 3 x IC50 constant
Description: The resistome growth assay employs a parasite pool consisting of 51 barcoded lines including both Dd2 and 3D7 genetic backgrounds, with wild-type lines for both (S3 Table). Most lines used were derived from in vitro resistance selection experiments, with others having been CRISPR edited. All lines were barcoded via CRISPR editing of a 101bp barcode cassette into the non-essential pfpare locus (PF3D7_0709700). Parasites were cultured in RPMI-1640 medium supplemented with HEPES (5.94 g/L), NaHCO3 (2.1 g/L), glutamax (1×), hypoxanthine (50 mg/L), gentamycin ([…]), and AlbumaxII (5 g/L) at a […]. Parasite growth was monitored over 14 days by flow cytometry (Cytoflex, Beckman Coulter) by staining with 1× SYBR Green and 0.2 μM MitoTracker Deep Red. Parasitemia adjustments were made to maintain a healthy range of <5% parasitemia. Parasite cultures were harvested at day 14 and lysed by saponin (0.05%), with pellets washed twice with PBS. Barcodes were PCR amplified using 5 μL of parasite pellet and sequenced by Illumina amplicon sequencing.

[15] = test system: PfCRT 7G8 isoform; test: [3H]CQ uptake in PfCRT-containing proteoliposomes; format: biochemical, Plasmodium falciparum; details: 1 μM; PfCRT 7G8, 7G8^F145I and 7G8^C350R
Description: Purified PfCRT variants were reconstituted in preformed liposomes made of E. coli total lipids:cholesteryl hemisuccinate 97:3 (w/w) at a protein-to-lipid ratio of 1:150 (w/w). The lumen of the proteoliposomes was composed of 100 mM KPi, pH 7.5, and 2 mM β-mercaptoethanol. Uptake of [^3H]CQ (1 Ci/mmol) or [^3H]PPQ (1 Ci/mmol) was performed by diluting PfCRT-containing proteoliposomes (30 ng of PfCRTper reaction) in an uptake buffer containing 100 mM Tris/MES, pH 5.5, in the presence or absence of 1 μM of the test compounds. In addition, 1 μM valinomycin was added to the reaction to generate a K^+ diffusion potential-driven membrane potential (ΔΨ). […] Filters were dried and incubated in a scintillation cocktail, and the radioactivity captured on the filters was counted in a Hidex SL300 scintillation counter. The efficiency of detection was calculated with a standard curve of known concentrations of each radiolabeled compound, and this was used to transform decays per minute (dpm) into pmol. The nonspecific interaction of each compound with nitrocellulose filters was determined by measuring mock uptake in the absence of liposomes or proteoliposomes. These values (determined for each experiment) were used to calculate background uptake in liposomes or proteoliposomes. […]

[16] = test system: P. berghei PbGFP-Luccon liver stage; test: In vitro inhibition of liver stage infection of Huh-7 cells, bioluminescence; format: cell-based, Plasmodium berghei; details: 10 nM, positive control
Description: In vitro inhibition of Plasmodium liver stage infection was assessed using bioluminescence data from Huh-7 cells infected with a firefly-luciferase-expressing P. berghei line, PbGFP-Luccon, in the presence of various compound concentrations. […] One day before drug treatment and infection, 10^4 Huh-7 cells/well were seeded in 96-well plates. The medium was then replaced by an infection medium (culture medium supplemented with 50 μg/mL gentamycin and 0.8 μg/mL amphotericin B) containing desired concentrations of test compounds. Fresh sporozoites recovered from salivary glands of infected female Anopheles stephensi mosquitoes were added to seeded Huh-7 cells at a 1:1 proportion, followed by centrifugation at 1700g for 5 minutes and incubation for 46 hours at 37°C under 5% CO2. Compound toxicity against Huh-7 cells was assessed by measuring […] using the Alamar Blue assay (Invitrogen). IC50 values were calculated using nonlinear regression analysis (GraphPad Prism version 9).

[17] = Dd2F145I, mean ± SEM, ref 1 (Ross et al., 2018)
[18] = Dd2M343L, mean ± SEM, ref 1 (Ross et al., 2018)
[19] = Dd2T93S, mean ± SEM, ref 2 (Dhingra et al., 2019)
[20] = Dd2Dd2, mean ± SEM, ref 1 (Ross et al., 2018)
[21] = Dd2G353V, mean ± SEM, ref 1 (Ross et al., 2018)
[22] = Dd2I218F, mean ± SEM, ref 2 (Dhingra et al., 2019)

SMILES: Clc1ccc2c(N3CCN(CCCN4CCN(c5ccnc6cc(Cl)ccc56)CC4)CC3)ccnc2c1 [PPQ, piperaquine]
- Phenotype, Dd2^3D7 [1]: S
- IC50 [2]: 41.8 ± 3.4 nM
- IC50 ([3]; 7G87G8, mean ± SEM, ref 3 (Kim et al., 2019)): 21.4 ± 1 nM
- Phenotype, 7G8^7G8 ([3]; ref [19],[20],[51]): S
- IC50 [4, 17]: 65.3 ± 3.1 nM
- IC90 [4, 17]: 5770 ± 666 nM
- Phenotype, Dd2^F145I ([4]; a: sensitized to CQ compared to the parental line but not fully sensitive, ref [19],[20],[51]): R
- IC50 [5, 18]: 37.6 ± 4.8 nM
- IC90 [5, 18]: 93.1 ± 9.7 nM
- Phenotype, Dd2^M343L ([5]; ref [19],[20],[51]): R
- IC50 [6, 19]: 31.9 ± 5.6 nM
- IC90 [6, 19]: 6880 ± 3420 nM
- Phenotype, Dd2^T93S ([6]; ref [19],[20],[51]): R
- IC50 ([7]; 7G8C350R, mean ± SEM, ref 3 (Kim et al., 2019)): 36.5 ± 2 nM
- Phenotype, 7G8^C350R ([7]; ref [19],[20],[51]): R
- IC50 [8, 20]: 27.6 ± 3.1 nM
- IC90 [8, 20]: 50.2 ± 4.2 nM
- Phenotype, Dd2^Dd2 ([8]; ref [19],[20],[51]): S
- IC50 [9, 21]: 31.8 ± 7.4 nM
- IC90 [9, 21]: 3740 ± 1980 nM
- Phenotype, Dd2^G353V ([9]; ref [19],[20],[51]): R
- IC50 ([10]; 7G8F145I, mean ± SEM, ref 3 (Kim et al., 2019)): 28.7 ± 1 nM
- Phenotype, 7G8^F145I ([10]; ref [19],[20],[51]): R
- Phenotype, Dd2^H97Y [11]: R
- IC50 [12, 22]: 42 ± 20.8 nM
- IC90 [12, 22]: 8600 ± 1660 nM
- Phenotype, Dd2^I218F ([12]; ref [19],[20],[51]): R
- IC50 [13]: 35.4 ± 2.1 nM

SMILES: CNC(=O)c1ccc(-c2cnc3cnc(C(=O)N(C)c4ccc(Cl)cc4)cn23)cc1 [KDU691]
- recrudescence of barcoded pool after [14]: 9 days and 7 days

SMILES: CCc1nc(N)nc(N)c1-c1ccc(Cl)cc1 [pyrimethamine]
- competitive inhibition of [3H]CQ or [3H]PPQ transport [15]: No competitive inhibition

SMILES: O=C1C(O)=C([C@H]2CC[C@H](c3ccc(Cl)cc3)CC2)C(=O)c2ccccc21 [atovaquone]
- effect on hepatic infection [16]: almost completely ablated infection
- competitive inhibition of [3H]CQ or [3H]PPQ transport [15]: No competitive inhibition
